These results are taken from ChEMBL document CHEMBL1139581, “BCUT descriptors to predicting affinity toward A3 adenosine receptors” (Bioorg Med Chem Lett, 2005).

pKi: −log10 of the molar value.

The target in this assay is T1, Adenosine receptor A3 (Rattus norvegicus, UniProt P28647).
T1 sequence (P28647 whole entry): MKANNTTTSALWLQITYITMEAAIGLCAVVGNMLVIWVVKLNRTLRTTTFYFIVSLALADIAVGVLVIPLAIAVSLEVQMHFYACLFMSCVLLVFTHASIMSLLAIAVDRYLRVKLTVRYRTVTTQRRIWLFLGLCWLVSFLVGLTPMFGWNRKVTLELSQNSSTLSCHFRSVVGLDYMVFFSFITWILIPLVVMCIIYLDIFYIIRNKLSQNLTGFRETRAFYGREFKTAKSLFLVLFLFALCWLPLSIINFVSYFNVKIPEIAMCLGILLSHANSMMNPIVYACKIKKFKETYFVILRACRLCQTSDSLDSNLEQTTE
Nature of the assay: Displacement of radioligand [125I]AB-MECA binding at rat A3 receptor expressed in CHO cells. The assay is classed as cell-based.

`CCNC(=O)[C@@H]1OC(n2cnc3c(NC(=O)Nc4ccc(S(=O)(=O)Nc5ncccn5)cc4)ncnc32)[C@@H](O)[C@H]1O` (some centres not stated) gave a pKi of 6.39. Next, `CCNC(=O)[C@H]1OC(n2cnc3c(NC(=O)Nc4ccc(S(=O)(=O)Nc5ccccn5)cc4)ncnc32)[C@H](O)[C@@H]1O` (some centres not stated): 7.27.
